For one test, the system named is leishmaniasis. To be noted: Reviews of Infectious Diseases 10(3):576-577; Experimental Parasitology 52:409 (1981); cited from earlier work.
Test [1] relates to Leishmania mexicana amazonensis. In words: In vitro screening for anti-leishmanial activity: inhibition of 3H-thymidine incorporation by promastigotes. It is filed as cell-based. To be noted: for IC50: PREVIOUS, Table III only. The method, then:
Leishmania mexicana amazonensis, strain MHOM/BR/73/M2269 (WR669), promastigotes were grown to early log phase in Schneider's Drosophila Medium (GIBCO) supplemented with 20% heat-inactivated fetal bovine serum GIBCO) and 100 ug/ml gentamicin sulfate [Parasitology 76:309 (1978)]. The assay medium was Schneider's plus 10% fetal bovine serum. Serial dilutions of the compounds of use in the present invention were suspended in the assay medium an prepared in duplicate rows of a 96-well microtiter plate. Parasite suspension (200 ul) at 2.5×10^6 cells/ml was added to each well and each plate was sealed and incubated under air at 25° C. After 24 hours, [methyl-3H] thymidine (20 Ci/mmol) was added to yield 1-2 uCi/well. After an additional 18 hours, the cells were harvested with a Skatron cell harvester onto glass microfiber filters. The filter disks were washed and dried and counted using a Beckman LS3801 scintillation counter. The data on uptake of ^3 H-thymidine was fitted to a logistic-logarithmic concentration response function by a non-linear regression method and the drug concentrations required to inhibit 50% incorporation of ^3 H-thymidine were determined [Antimicrob. Agents Chemother. 16:710 (1979); Exper. Parasitol. 66:86 (1988)].

For the next test, the system named is trypanosomiasis. The note with it: in vivo; cited from earlier work.
Test [2] deals with Preumocystis carinii pneumonia. To be noted: especially immunocompromised patients suffering from AIDS; cited from earlier work.

Molecules are shown by their SMILES. A value given as a limit tells only on which side of the number the result lay.

Usually IC50 stands for the concentration that gives 50% inhibition. The low end stands for higher potency, the high end for lower potency.

For `N=C(N)c1ccc(OCCCCCOc2ccc(C(=N)N)cc2)cc1` [Example 4, pentamidine], the “utility for treating leishmaniasis (in words)” value with leishmaniasis is listed as “limited utility for the purpose of treating leishmaniasis”. Besides, in test [1], the “anti-Leishmania activity (in words)” value was “moderately effective against Leishmania”. The “usefulness for treatment of trypanosomiasis (in words)” value with trypanosomiasis is “useful for the treatment of trypanosomiasis”. In addition, in test [2], the “usefulness in treatment of Preumocystis carinii pneumonia (in words)” value is on record as “extremely useful in the treatment of Preumocystis carinii pneumonia”.
Consider `N=C(N)c1ccc(NCCCCCNc2ccc(C(=N)N)cc2)cc1` [Example 8], for which the “anti-Leishmania activity (in words)” value in test [1] is given as “high-degree of anti-Leishmania activity”.
On the same count and under the same terms, the value for `N=C(N)c1ccc(OCCCCCCOc2ccc(C(=N)N)cc2)cc1` [Example 9, hexamidine] was “high-degree of anti-Leishmania activity”.
In test [1] (Leishmania mexicana), `c1cc(C2=NCCN2)ccc1OCCCCCOc1ccc(C2=NCCN2)cc1` [Example 15] yielded an IC50 of 670 nM.
Molecule `CN1CCN=C1c1ccc(OCCCCCOc2ccc(C3=NCCN3C)cc2)cc1` [Example 16] yielded an IC50 in test [1] of over 4500 nM.
Take `COc1cc(C2=NCCN2)ccc1OCCCOc1ccc(C2=NCCN2)cc1OC` [Example 17]: in test [1] (Leishmania mexicana), the IC50 is over 4500 nM.

These data come from patent publication US5202320A, “Method for treating leishmaniasis” (priority 1989, dated 1993).
